Earlier results in US20260007632A1, “FORMULATIONS OF DOCETAXEL” (Zhuhai Beihai Biotech Co., Ltd., priority 2020, published 2026).

Key:
[1] = tested on: microtubule; conditions: relative to paclitaxel

volume of ethanol required to dissolve 1 g (at 25° C.) [mL]	volume of water required to dissolve 1 g (at 25° C.) [mL]	solubility in water	Compound	potency in inhibiting microtubule depolymerization [1]
5	300	–	CC(=O)Oc1ccccc1C(=O)O [aspirin]	–
–	–	very poor water solubility	CC(=O)O[C@@]12CO[C@@H]1C[C@H](O)[C@@]1(C)C(=O)[C@H](O)C3=C(C)[C@@H](OC(=O)[C@H](O)[C@@H](NC(=O)OC(C)(C)C)c4ccccc4)C[C@@](O)([C@@H](OC(=O)c4ccccc4)[C@H]21)C3(C)C [docetaxel]	about twice as potent as paclitaxel
